Results on four molecules are retold here after patent US4888339A, “Agent for prophylaxis and treatment of cardiac hypertrophy” (Tanabe Seiyaku Co., Ltd., priority 1986, dated 1989).

What all share (assay type): in vivo
The subject of series [1] is spontaneously hypertensive rats (SHR). The series can be described thus: Activity for inhibiting cardiac hypertrophy, intraperitoneal administration to SHR (Experiment 2). The following applies: 0.5 mg/kg/day for 10 weeks. As for the experimental part:
The test compound: (4S)-1-methyl-3-[(2S)-2-[N-((1S)-1-carboxy-3-phenylpropyl)amino]propionyl]-2-oxo-imidazolidine-4-carboxylic acid hydrochloride was dissolved in distilled pure water and intraperitoneally administered to spontaneously hypertensive rats (SHR) (4 weeks old age at the beginning of experiment, groups of 9 rats) at a dose of 0.5 mg/kg/day for 10 weeks.
Twenty-four hours after the final dosing, the SHR was killed by bleeding under ether anesthesia. The weight of heart was measured and the weight of heart per 100 g of body weight (relative heart weight) was calculated.

Series [2] has as its system rats. The series can be described thus: Oral toxicity in rats. The conditions noted are these: 5 g/kg, observed for 5 days. The text has this:
Moreover, the compounds (I) of this invention have low toxicity.

In series [3] the test system is spontaneously hypertensive rats (SHR). The series can be described thus: Activity for inhibiting cardiac hypertrophy, oral administration to SHR (Experiment 1). The following applies: 5 mg/kg/day for 10 weeks. On the procedure:
The test compound: (4S)-1-methyl-3-[(2S)-2-[N-((1S)-1-ethoxycarbonyl-3-phenylpropyl)amino]propionyl]-2-oxo-imidazolidine-4-carboxylic acid hydrochloride was dissolved in distilled pure water and orally administered to spontaneously hypertensive rats (SHR) (4 weeks old age at the beginning of experiment, groups of 6 rats) at a dose of 5 mg/kg/day for 10 weeks.
Twenty-four hours after the final dosing, the SHR was killed by bleeding under ether anesthesia. The weight of heart was measured and the weight of heart per 100 g of body weight (relative heart weight) was calculated. After that, the heart was used for the measurement of cross sectional area of the heart.
Method for measurement of cross sectional area of heart is as follows:
(i) After weighing the excised heart, the excised heart was immersed in 10% neutral buffered formalin solution for about one week to fix said heart. The fixed heart was cut at a definitive region crossing the left and right ventricles to obtain a sample (thickness: about 2 mm). The sample was again immersed in a 10% neutral buffered formalin solution overnight, treated with paraffin in a usual manner (Note 1) and then stained with hematoxyin eosine (HE).
(ii) The microscopic image of the stained sample was examined by an image analyzer (Note 2) to give the ratio of the area of stained region to the area of unstained region (the latter area being the gap produced in preparing the sample).
(iii) The real area of the sample was obtained by an image analyzer and then multiplied by the ratio obtained in the above (ii) to give the cross sectional area of the heart.
[Note 1]: It is disclosed in "Byori Gijutsu Mannual" (Mannual for Pathorogical Technology) 3, Technology for Histopathorogical Preparation, ed. by Nippon Byori Gakkai, issued on Mar. 30, 1981 by Ishiyaku Shuppan K.K.
[Note 2]: Nikon three tube color television camera and Nikon Ruzex II, manufactured by Nippon Kogaku K.K.
The inhibitory ratio was calculated by the following equation: [formula]

[4] abbreviates: SHR, versus non-administ. group.

Turning to `C[C@H](N[C@@H](CCc1ccccc1)C(=O)O)C(=O)N1C(=O)N(C)C[C@H]1C(=O)O.Cl` [(4S)-1-methyl-3-[(2S)-2-[N-((1S)-1-carboxy-3-phenylpropyl)amino]propionyl]-2-oxo-imidazolidine-4-carboxylic acid hydrochloride], in series [1], the “Inhibition of cardiac hypertrophy (in words)” value is on record as “clear inhibition of cardiac hypertrophy”. The “Relative heart weight (weight of heart per 100 g of body weight)” value in series [1] (groups of 9, non-administ. group 0.36 ± 0.013, ** significant at 0.1% level) was determined as 0.33 ± 0.012 g. For the same molecule, the “Inhibitory ratio, relative heart weight” value in series [1] (versus non-administ. group) stood at 8%.

In the case of `C[C@H](N[C@@H](CCc1ccccc1)C(=O)O)C(=O)N1C(=O)N(C)C[C@H]1C(=O)O` [(4S)-1-methyl-3-[(2S)-2-[N-((1S)-1-carboxy-3-phenylpropyl)amino]propionyl]-2-oxo-imidazolidine-4-carboxylic acid], the Mortality result in series [2] is “no rats was died”.

`CCOC(=O)[C@H](CCc1ccccc1)N[C@@H](C)C(=O)N1C(=O)N(C)C[C@H]1C(=O)O.Cl` [(4S)-1-methyl-3-[(2S)-2-[N-((1S)-1-ethoxycarbonyl-3-phenylpropyl)amino]propionyl]-2-oxo-imidazolidine-4-carboxylic acid hydrochloride]: the “Inhibition of cardiac hypertrophy (in words)” value in series [3] (SHR) was “clear inhibition of cardiac hypertrophy”. Also, in series [3] (SHR, groups of 6, non-administ. group 0.399 ± 0.01, * significant at 1% level), the “Relative heart weight (weight of heart per 100 g of body weight)” value is 0.34 ± 0.01 g. Moreover, in series [3] (SHR, groups of 6, non-administ. group 66.8 ± 4.0, * significant at 1% level), the “Sectional area of heart” value turned out to be 57.9 ± 2.9 mm^2. In series [3] (setting [4]), the “Inhibitory ratio, relative heart weight” value is recorded as 13% and the “Inhibitory ratio, sectional area of heart” value turned out to be 13%.

As for `CCOC(=O)[C@H](CCc1ccccc1)N[C@@H](C)C(=O)N1C(=O)N(C)C[C@H]1C(=O)O` [(4S)-1-methyl-3-[(2S)-2-[N-((1S)-1-ethoxycarbonyl-3-phenylpropyl)amino]propionyl]-2-oxo-imidazolidine-4-carboxylic acid], the Mortality entry in series [2] is listed as “no rats was died”. In series [3] (spontaneously hypertensive rats), the “Inhibition of increase of heart weight (in words)” value is “significantly inhibited increase of heart weight”.
